Laboratory results published in patent US11857531B2, “Combination mast cell inhibition for treatment of BPH/LUTS” (Northwestern University, priority 2020, dated 2024).
Where a name gives a salt, the structure may show the parent alone.

Tested on: IL-4, IL-13, STAT-6, IFNγ, IL-17a, IL-10 mRNA in prostates of CP1 infected mice
Experiment: qPCR for cytokine transcripts in prostates
Format: in vivo, C57BL/6 mice
Settings: late, day 35 post CP1 infection; single drug or combination; CrS 0.5 mg/kg, CeHCl 2.5 mg/kg i.p. daily 10 days
Description: The prostates were harvested from mice after euthanizing as described previously (32). Depending on the experimental design, each prostate sample (separated by lobes) were either fixed in 10% formalin or frozen at −80° C. in TRIzol™ reagent (Life Technologies Corporation, Grand Island, NY, USA), or frozen at −80° C. in 1×RIPA (Santa Cruz Biotechnology, Dallas, TX, USA) containing complete-EDTA protease inhibitor cocktail and phosSTOP phosphatase inhibitor (Millipore-Sigma, Burlington, MA, USA), or processed for tissue digestion for flow cytometry. Formalin samples were further processed and embedded in paraffin. The formalin-fixed paraffin-embedded (FFPE) samples were then sectioned (5 μm sections) and mounted on glass slides for staining. […] Following voiding behavior testing on days 14 or 35 [“early treatment” or “late treatment” groups respectively], mice were euthanized and tissues were prepared as described above. Total RNA was isolated using TRIzol™ reagent (Life Technologies Corporation, Grand Island, NY, USA), and cDNA synthesis, starting with 1 μg of total RNA, was performed with random hexamers using High-Capacity cDNA Reverse Transcription Kit (Life Technologies Corporation, Grand Island, NY, USA) per the manufacturer's instructions. Primers for quantitative PCR (qPCR) were created for the RNA of interest using the NIH online primer blast tool. Reverse Transcription-Quantitative Polymerase Chain Reaction (RT-qPCR) reactions were performed using SsoAdvanced™ universal SYBR® green (Bio-Rad, Hercules, CA, USA) and run on the CFX Connect (Bio-Rad, Hercules, CA, USA) platform. A full table of primer sequences is included in Table 1. The data were analyzed by the 2^−ΔΔCT method (38), and normalized to GAPDH as the housekeeping gene. The data are represented as fold change normalized to the average expression of the gene of interest in their respective control group.

Row | SMILES | IL-4 gene expression in prostates of CP1-infected mice (FIG. 12) | IL-13 gene expression in prostates of CP1-infected mice (FIG. 12)
1 | O=C(O)COCCN1CCN(C(c2ccccc2)c2ccc(Cl)cc2)CC1 (stereo not shown) [CeHCl, cetirizine di-hydrochloride] | reduced the gene expression levels of IL-4 and IL-13 to a modest but non-significant levels | reduced the gene expression levels of IL-4 and IL-13 to a modest but non-significant levels
2 | O=C([O-])c1cc(=O)c2c(OCC(O)COc3cccc4oc(C(=O)[O-])cc(=O)c34)cccc2o1.[Na+].[Na+] [CrS, cromolyn sodium] | reduced the gene expression levels of IL-4 and IL-13 to negligible levels | reduced the gene expression levels of IL-4 and IL-13 to negligible levels
